Values quoted from earlier work as cited in patent publication US3940382A, “1,2'-Di-N-substituted kanamycin B compounds” (Zaidan Hojin Biseibutsu Kagaku Kenkyu Kai, priority 1973, dated 1976).

Tested on: drug-resistant bacteria
Conditions: cited from earlier work

| SMILES | antibacterial activity against the drug-resistant bacteria |
| --- | --- |
| NC[C@@H]1CC[C@@H](N)[C@@H](O[C@H]2[C@H](O[C@@H]3O[C@H](CO)[C@@H](O)[C@H]3O)[C@@H](O)[C@H](N)C[C@@H]2N)O1 [3',4'-dideoxyribostamycin] | improved antibacterial activity |
| CNC[C@H]1O[C@H](O[C@H]2[C@H](O)[C@@H](O[C@H]3O[C@H](CO)[C@@H](O)[C@H](N)[C@H]3O)[C@H](N)C[C@@H]2N)[C@H](N)C[C@@H]1O [3'-deoxy-6'-N-methylkanamycin B] | improved antibacterial activity |
| NC[C@H]1O[C@H](O[C@H]2[C@H](O)[C@@H](O[C@H]3O[C@H](CO)[C@@H](O)[C@H](N)[C@H]3O)[C@H](N)C[C@@H]2N)[C@H](N)C[C@@H]1O [3'-deoxykanamycin B] | improved antibacterial activity |
| NC[C@H]1O[C@H](O[C@H]2[C@H](O)[C@@H](O)[C@H](N)C[C@@H]2N)[C@H](N)C[C@@H]1O [3'-deoxyneamine] | improved antibacterial activity |
| NC[C@H]1O[C@H](O[C@H]2[C@H](O[C@@H]3O[C@H](CO)[C@@H](O)[C@H]3O)[C@@H](O)[C@H](N)C[C@@H]2N)[C@H](N)C[C@@H]1O [3'-deoxyribostamycin] | improved antibacterial activity |
